Results from publication PMC10196813 (Angewandte Chemie (International ed. in English), 2023).
Peptide text beside a SMILES is read from it. * marks the point of attachment. Cbz = O=C(OCc1ccccc1)*

Tested on: PTP1B/TC-PTP
Type: cell-based
Details: HEK293 cells, followed by 4 h DU-14 at 100 nM

Row | SMILES | effect of pre-treatment/addition on DU-14 mediated PTP1B and TC-PTP degradation
1 | NS(=O)(=O)OC[C@@H]1C[C@@H](n2ccc3c(N[C@H]4CCc5ccccc54)ncnc32)C[C@@H]1O [MLN-4924] | markedly reduced
2 | Nc1cccc2c1CN(C1CCC(=O)NC1=O)C2=O (stereo not shown) [Lenalidomide] | had no effect
3 | CC(C)C[C@@H](C=O)NC(=O)[C@H](CC(C)C)NC(=O)[C@H](CC(C)C)NC(=O)OCc1ccccc1 [MG-132] (Cbz-Leu-Leu-Leu-aldehyde) | markedly reduced
4 | Cc1ncsc1-c1ccc([C@H](C)NC(=O)[C@@H]2C[C@@H](O)CN2C(=O)[C@@H](N)C(C)(C)C)cc1 [(S,R,S)-AHPC-Me] | reduced
